Measured values: doi:10.1101/2023.02.27.530254, “Large library docking for cannabinoid-1 receptor agonists with reduced side effects” (bioRxiv, 2024)
Like-named read-outs stand apart in the source and are kept apart here.

What was measured:
CB1 = target: T1, CB1 (Rattus norvegicus, UniProt P20272); assay: Radioligand competition binding with [3H]-CP-55,940, rat brain membranes; settings: for Emax / rCB1 binding Emax [SEM]: maximal radioligand displacement; for Emax: read-out: rCB1 binding Emax [SEM]; for Ki / rCB1 binding pKi [95% CI]: [3H]-CP-55,940 competition, rat brain membranes; for % [3H]-CP-55,940 displacement (mean) from single point screen: screens at 10 μM (white cells), 1 μM (orange) or 300 nM (green), cell colours not visible
T1 construct: membrane preparations from rat brain (source of CB1); tissue Bioivt RAT00BRAINMZN; host or cells: rat brain
T1 sequence (P20272 whole entry): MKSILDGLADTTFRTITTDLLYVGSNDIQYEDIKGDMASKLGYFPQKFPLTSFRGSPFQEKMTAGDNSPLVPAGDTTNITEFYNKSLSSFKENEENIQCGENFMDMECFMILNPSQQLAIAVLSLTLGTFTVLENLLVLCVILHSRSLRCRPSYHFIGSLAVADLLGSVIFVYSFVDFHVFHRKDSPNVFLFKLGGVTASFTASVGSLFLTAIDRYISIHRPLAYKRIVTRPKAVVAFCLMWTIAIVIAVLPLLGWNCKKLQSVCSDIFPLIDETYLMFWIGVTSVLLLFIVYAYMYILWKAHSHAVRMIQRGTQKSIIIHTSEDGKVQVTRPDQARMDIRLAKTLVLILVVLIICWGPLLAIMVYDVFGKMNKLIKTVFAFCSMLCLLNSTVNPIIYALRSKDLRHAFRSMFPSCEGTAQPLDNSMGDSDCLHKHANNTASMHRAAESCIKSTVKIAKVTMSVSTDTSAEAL
Protocol: The results were analyzed using nonlinear regression to determine the IC50 and Ki values for each ligand (Prism by GraphPad Software, Inc., San Diego, CA). The Ki values are expressed as the mean of two to three experiments each performed in triplicate.

hCB1 = hCB1 (Homo sapiens, UniProt P21554); assay: bioSens-All ebBRET effector biosensor signaling profiling, HEK293; format: cell-based; parameters: host or cells: HEK293 (HEK293SL clone), transient
Chain of hCB1 (P21554 whole entry, the tested form may be a part): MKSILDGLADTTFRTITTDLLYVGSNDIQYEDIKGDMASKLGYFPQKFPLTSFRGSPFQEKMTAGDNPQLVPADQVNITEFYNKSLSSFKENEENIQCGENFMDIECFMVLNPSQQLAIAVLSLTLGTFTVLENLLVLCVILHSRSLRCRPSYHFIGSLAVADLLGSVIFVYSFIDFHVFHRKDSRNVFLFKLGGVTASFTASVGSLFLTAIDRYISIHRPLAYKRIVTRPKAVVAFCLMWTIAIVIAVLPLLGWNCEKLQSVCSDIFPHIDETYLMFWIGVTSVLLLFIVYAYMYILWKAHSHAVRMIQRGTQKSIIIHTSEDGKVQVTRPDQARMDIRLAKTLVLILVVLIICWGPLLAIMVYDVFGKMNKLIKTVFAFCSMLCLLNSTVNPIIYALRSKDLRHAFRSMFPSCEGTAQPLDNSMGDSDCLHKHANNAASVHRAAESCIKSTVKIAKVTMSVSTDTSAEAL
Protocol: ebBRET-based effector membrane translocation biosensor assays were conducted at Domain Therapeutics NA Inc. (Montreal, QC, Canada) as previously described. […] HEK293 cells were maintained in Dulbecco’s Modified Eagle Medium (DMEM) (Wisent) supplemented with 1% penicillin- streptomycin (Wisent) and 10% (or 2 % for transfection) fetal bovine serum (Wisent) at 37°C with 5% CO2. All biosensor-coding plasmids and related information are the property of Domain Therapeutics NA Inc. The total amount of transfected DNA was adjusted and kept constant at 1 μg per mL of cell culture to be transfected using salmon sperm DNA (Invitrogen) as ‘carrier’ DNA, PEI (polyethylenimine 25 kDa linear, PolyScience) and DNA (3:1 ml PEI:mg DNA ratio) were first diluted separately in 150 mM NaCl then mixed and incubated for at least 20 minutes at room temperature to allow for the formation of DNA/PEI complexes. During the incubation, HEK293 cells were detached, counted, and re-suspended in maintenance medium to a 350,000 cells per mL density. At the end of the incubation period, the DNA/PEI mixture was added to the cells. Cells were finally distributed in 96-well plates (White Opaque 96-well /Microplates, Greiner) at a density of 35,000 cells per well. Forty-eight hours post-transfection, medium was aspirated and replaced with 100 μl of Hank’s Balanced Salt Solution buffer (HBSS) (Wisent) per well using 450-Select TS Biotek plate washer. After 60 min incubation in this medium, 10 μL of 10 μM e-Coelenterazine Prolume Purple (Methoxy e-CTZ) (Nanolight) was added to each well for a final concentration of 1 μM immediately followed by addition of increasing concentrations of the test compounds to each well using the HP D300 digital dispenser (Tecan). All compounds were assayed at 22 concentrations with each biosensor after a 10-minute room temperature incubation period. […] All BRET ratios were standardized using the universal BRET (uBRET) equation: uBRET=BRETratio-A/B-A×10,000 where A is the BRET ratio obtained from transfection of negative control and B is the BRET ratio obtained from transfection of positive control. […] The data were analyzed using the four-parameter logistic non-linear regression model in GraphPad Prism 9.1 and data were presented as means ± CIs of 1–4 independent experiments.
The SEM was calculated for the logEmax/EC50 ratios using the following equation: SEM=σ/n where σ is the standard deviation, and n is the number of experiments.

[1] = HEK293, read-out: hCB1 Gi1 Emax [95% CI]
[2] = HEK293, read-out: hCB1 GoB Emax [95% CI]
[3] = HEK293, read-out: hCB1 Gz Emax [95% CI]
[4] = hCB1 GoB EC50 [95% CI], GoB sensor
[5] = hCB1 Gi1 EC50 [95% CI], Gi1 sensor
[6] = read-out: rCB1 binding Ki [95% CI]

Row | Structure (SMILES) | Emax (CB1) [%] | Ki (CB1; rCB1 binding Ki [95% CI]) [nM] | Emax (hCB1; [1]) [%] | Emax (hCB1; [2]) [%] | other results
1 | Cc1cc(C(=O)NC(c2ccccc2)c2ccco2)nn1-c1cccc(C(F)(F)F)c1 (stereo not shown) [‘1081] | 96 | 116 | 49 | 45 | Emax (hCB1; [3]): 72%; EC50 (hCB1; hCB1 Gi1 EC50 [95% CI]): 150 nM; EC50 (hCB1; [4]): 91.7 nM; EC50 (hCB1; hCB1 Gz EC50 [95% CI]): 225 nM; EC50 (hCB1; hCB1 Gz pEC50 [95% CI]): 200 nM
2 | Cc1nn(Cc2ccc(Cl)cc2)c(C)c1C(=O)OCC1CSc2ccccc2O1 (stereo not shown) [‘5463] | 88 | 825 | 31 | 32 | EC50 (hCB1; hCB1 Gi1 EC50 [95% CI]): 4940 nM; EC50 (hCB1; hCB1 GoB EC50 [95% CI]): 7470 nM
3 | COC(=O)C(NC(=O)c1cc(C)n(-c2cccc(C#N)c2)n1)c1ccsc1 (stereo not shown) [‘31604] | 100 | 801 |  |  | 
4 | Cc1cc(C(=O)NC(c2ccccc2)c2ccco2)nn1-c1cccc(C#N)c1 (stereo not shown) [‘12565] | 97 | 301 | 28 | 25 | Emax (hCB1; [3]): 51%; EC50 (hCB1; [5]): 104 nM; EC50 (hCB1; [4]): 44.8 nM; EC50 (hCB1; hCB1 GoB pEC50 [95% CI], GoB sensor): 39.8 nM; EC50 (hCB1; hCB1 Gz EC50 [95% CI], Gz sensor): 54.6 nM
5 | Cc1c(C(=O)OCC2CSc3ccccc3O2)cnn1Cc1ccccc1 (stereo not shown) [‘7800] |  | 1010 | 34 | 21 | EC50 (hCB1; hCB1 Gi1 EC50 [95% CI]): 6790 nM; EC50 (hCB1; hCB1 GoB EC50 [95% CI]): 597 nM
6 | Cc1nc(CC2CC2)oc1-c1nc(Cc2cc3c(cc2Br)OCO3)no1 [‘7019] |  | 4040 |  |  | 
7 | Cc1cc(C(=O)NC(C)(c2ccco2)c2ccco2)nn1-c1cccc(C(F)(F)F)c1 [‘4936] | 88 | 7.5 |  |  | 
8 | Cc1cc(C(=O)N2CC3(CCC3)[C@H]2[C@H]2CCCO2)nn1-c1cccc(C(F)(F)F)c1 [‘3737b] |  |  | 89 | 152 | Emax (hCB1; [3]): 231%; EC50 (hCB1; hCB1 Gi1 EC50 [95% CI]): 3030 nM; EC50 (hCB1; hCB1 GoB EC50 [95% CI]): 19800 nM; EC50 (hCB1; hCB1 Gz EC50 [95% CI]): 30800 nM
9 | CC(=O)C(C)(NC(=O)c1cc(C)n(-c2cccc(C(F)(F)F)c2)n1)c1cccs1 (stereo not shown) [‘4156] | 91 | 13.5 |  |  | 
10 | N#Cc1cccc(OCc2ccoc2C(=O)OCC2CSc3ccccc3O2)c1 (stereo not shown) [compound 5424] | 104 | 876 |  |  | % [3H]-CP-55,940 displacement (mean) from single point screen (CB1; listed as 7019_31): 80.66%
11 | CCCCCCC(C)(C)c1cc(O)c2c(c1)OC(C)(C)C1CCC(=O)CC21 (stereo not shown) [Nabilone, reference compound] | 81 |  |  |  | Ki (CB1; rCB1 binding pKi [95% CI]): 2.51 nM
12 | Cc1cc(C(=O)N2CC3(CCC3)[C@H]2[C@@H]2CCCO2)nn1-c1cccc(C(F)(F)F)c1 [‘3737a] |  |  | 98 | 118 | Emax (hCB1; [3]): 140%; EC50 (hCB1; hCB1 Gi1 EC50 [95% CI]): 2800 nM; EC50 (hCB1; hCB1 GoB EC50 [95% CI]): 6730 nM; EC50 (hCB1; hCB1 Gz EC50 [95% CI]): 2470 nM; EC50 (hCB1; hCB1 Gz pEC50 [95% CI]): 2510 nM
13 | COC(=O)C(NC(=O)c1cc(-c2ccccc2)n(-c2cccc(C(F)(F)F)c2)n1)c1cccs1 (stereo not shown) [‘8079] | 104 | 18.5 |  |  | 
14 | Cc1cc(C(=O)N2CC3(CCC3)[C@@H]3COC[C@@H]32)nn1-c1cccc(C(F)(F)F)c1 [10_14] |  |  |  |  | % [3H]-CP-55,940 displacement (mean) from single point screen (CB1): 91.30%
15 | COC(=O)[C@H](c1cccs1)N(C)C(=O)c1cc(C)n(-c2cccc(C(F)(F)F)c2)n1 [‘1066] | 97 | 1720 |  |  | 
16 | Cc1cc(C(=O)N(C)C(c2ccco2)c2ccco2)nn1-c1cccc(C(F)(F)F)c1 [‘4388] |  |  |  |  | rCB1 binding pKi [95% CI] (CB1): 5.9 [5.7 – 6.0]; rCB1 binding Emax [SEM] (CB1): 113%; Ki (CB1; [6]): 1360 nM
17 | COC(=O)[C@@H]1[C@@H]2CC[C@@H]2CN1C(=O)c1cc(C)n(-c2cccc(C(F)(F)F)c2)n1 [‘6448] |  |  |  |  | rCB1 binding pKi [95% CI] (CB1): 6.1 [5.9 – 6.3]; rCB1 binding Emax [SEM] (CB1): 103%; Ki (CB1; [6]): 866 nM; hCB1 Gi1 pEC50 [95% CI] (hCB1; Gi1 sensor): 6.5 [6.4 – 6.5]; hCB1 Gi1 Emax [95% CI] (hCB1; Gi1 sensor, normalized to CP-55,940): 87 [86 – 88]; hCB1 GoB pEC50 [95% CI] (hCB1; GoB sensor): 6.5 [6.4 – 6.6]; hCB1 GoB Emax [95% CI] (hCB1; GoB sensor, normalized to CP-55,940): 90 [87 – 91]; hCB1 Gz pEC50 [95% CI] (hCB1; Gz sensor): 6.1 [5.9 – 6.4]; hCB1 Gz Emax [95% CI] (hCB1; Gz sensor, normalized to CP-55,940): 151 [130 –172]; EC50 (hCB1; read-out: hCB1 Gi1 EC50 [95% CI], Gi1 sensor): 345 nM; EC50 (hCB1; read-out: hCB1 GoB EC50 [95% CI], GoB sensor): 310 nM; EC50 (hCB1; read-out: hCB1 Gz EC50 [95% CI], Gz sensor): 728 nM
18 | Cn1nc(-c2nnc(C(C)(C)Oc3ccc(C(F)(F)F)cc3)o2)c2ccccc2c1=O [‘2153] | 82.6 | 163 | 89 | 109 | EC50 (hCB1; hCB1 Gi1 EC50 [95% CI]): 1010 nM; EC50 (hCB1; hCB1 GoB EC50 [95% CI]): 2060 nM
19 | CC(=O)C(c1cccs1)N(C)C(=O)c1cc(C)n(-c2cccc(C(F)(F)F)c2)n1 (stereo not shown) [‘6829] | 106 | 1050 | 68 | 49 | Emax (hCB1; [3]): 70%; EC50 (hCB1; hCB1 Gi1 EC50 [95% CI]): 4060 nM; EC50 (hCB1; hCB1 GoB EC50 [95% CI]): 1010 nM; EC50 (hCB1; hCB1 Gz EC50 [95% CI]): 1350 nM
20 | COC(=O)[C@@H](c1cccs1)N(C)C(=O)c1cc(C)n(-c2cccc(C(F)(F)F)c2)n1 [‘6000] | 96 | 1460 |  |  | 
21 | Cc1cc(C(=O)N(C)C(c2ccccc2)c2ccco2)nn1-c1cccc(C(F)(F)F)c1 (stereo not shown) [‘1082] | 94 | 850 |  |  | 
22 | Cc1cc(C(=O)NC(C)(c2ccccc2)c2ccco2)nn1-c1cccc(C(F)(F)F)c1 (stereo not shown) [‘5806] | 100 | 8 |  |  | 
23 | COC(=O)[C@@H]1[C@@H]2CCC[C@@H]2CN1C(=O)c1nn(-c2cccc(C(F)(F)F)c2)c2c1CCC2 [10_17] |  |  |  |  | % [3H]-CP-55,940 displacement (mean) from single point screen (CB1): 98.24%
24 | Cc1cc(C(=O)NC(c2ccco2)c2ccco2)nn1-c1cccc(C(F)(F)F)c1 [‘1090] | 99 | 90.8 | 81 | 90 | Emax (hCB1; [3]): 115%; EC50 (hCB1; [5]): 35.6 nM; EC50 (hCB1; hCB1 Gi1 pEC50 [95% CI], Gi1 sensor): 31.6 nM; EC50 (hCB1; [4]): 37.3 nM; EC50 (hCB1; hCB1 Gz EC50 [95% CI]): 126 nM
25 | COC(=O)C(c1ccco1)N(C)C(=O)c1cc(C)n(-c2cccc(C(F)(F)F)c2)n1 (stereo not shown) [‘6425] | 108 | 934 |  |  | 
